Test results taken from patent US20250368628A1, “METHODS AND COMPOUNDS FOR MODULATING INHERITED GENETIC DISEASES” (Design Therapeutics, Inc., priority 2022, published 2025).

system: Myotonic Dystrophy 1 affected patient fibroblasts (Coriel GM04602; 1600 CTG repeats); test: DM1 foci reduction assay (EC50 assay; CAG10-Cy3 FISH, foci per nucleus); format: cell-based; conditions: Homo sapiens, Fibroblast; DM1 patient fibroblasts, 48 h treatment, foci per nucleus; read-out: DM1 EC50, 48 h
Protocol: DM1 Foci Reduction Assay Methods
Myotonic Dystrophy 1 affected patient fibroblasts (Coriel GM04602; 1600 CTG repeats) and wild type fibroblasts (Coriell GM07492; control line) were cultured separately in Gibco DMEM (1×)+4.5 g/L D-Glucose+L-Glutamine+[…] Sodium Pyruvate, supplemented with 10% FBS and 1× Pen/Strep. Cells were maintained in an incubator at 37° C. and 5% CO2 with media refreshed every 48-72 hours.
At 90-95% confluency, both cell lines were harvested using Trypl-E then pelleted at 500×g for 5 minutes and were resuspended in fresh media. DM1 fibroblasts were seeded in Agilent 96 well black plates at a density of 5,000 cells/well in 200 μL media; and 8 wells were reserved for control fibroblasts. Plates were returned to incubator for 24 hours at 37° C. and 5% CO2.
Compounds were diluted from 10 mM stock to 1 mM in DMSO and then diluted once more to 6 μM (2× concentration) in media. Media was removed from all plates and cells were replenished with 100 μL media. Cells were treated in 8-point dose response, 1:3 fold dilution, 3 μM top dose via addition of 100 μL of 6 μM (2× concentration) compound to the 100 μL media with cells. Plates were returned to incubator for 48 hours at 37° C. and 5% CO2.
Following treatment, compounds were removed, and plates were washed with PBS, then cells were fixed in 75 μL 4% PFA solution for 20 minutes at room temperature. Plates were washed twice with PBS and twice with cold 70% ethanol before permeabilization with 250 μL cold 70% ethanol for 24-72 hours at −20° C.
After permeabilization, plates were washed once with a 30% formamide and 2×SSC buffer and rehydrated in that buffer for 15 minutes at room temperature. Cells were incubated overnight at 37° C. in 75 μL of a hybridization solution containing 30% formamide, 2×SSC, 25 mg/mL dextran sulfate, 2.5 mg/mL BSA, 0.2 μg/mL Herring sperm DNA, 2 mM vanadyl-ribonucleoside complex, and 5 nM CAG10-Cy3 probe.
Plates were washed once with 30% formamide in 2×SSC buffer, then twice with the buffer for 30 minutes at 37° C., 300 RPM in an incubating plate shaker. Cells were stained with 75 μL of 2.5 μg/mL DAPI in PBS for 5 minutes at room temperature. Plates were then washed twice with PBS and stored in 250 μL PBS. Plates were sealed with adhesive foil and wiped down with 70% ethanol.
Cells were imaged on a Cytation5 with a 20× objective sampling from 4 areas of each well. Nuclei were captured under DAPI channel and foci under RFP channel. Plates were analyzed on an average foci per nucleus per well basis.

**Q.** How did the EC50 turn out when CCCNC(=O)CCNC(=O)c1nc(NC(=O)c2cc(NC(=O)CCNC(=O)c3nc(NC(=O)CCCNC(=O)c4cc(NC(=O)c5nc(NC(=O)c6cc(NC(=O)CCNC(=O)c7nccn7C)cn6C)cn5C)cn4C)cn3C)cn2C)cn1C [Compound B-83] was run?
**A.** > 1 µM

**Q.** For CCCNC(=O)CCNC(=O)c1nc(NC(=O)c2cc(NC(=O)CCNC(=O)c3nc(NC(=O)CCCNC(=O)c4cc(NC(=O)c5nc(NC(=O)CCNC(=O)c6cc(NC(=O)c7nccn7C)cn6CCCCCCN)cn5C)cn4C)cn3C)cn2C)cn1C [Compound B-61], which EC50 is on record?
**A.** > 1 µM

**Q.** CCCNC(=O)CCNC(=O)c1nc(NC(=O)c2cc(NC(=O)CCNC(=O)c3nc(NC(=O)CCCNC(=O)c4cc(NC(=O)c5nc(NC(=O)CCNC(=O)c6cc(NC(=O)c7nccn7C)cn6C)cn5C)cn4CCCCCCNC(C)=O)cn3C)cn2C)cn1C [Compound B-292] was tested. Which EC50 did it give?
**A.** < 0.1 µM

**Q.** For Cn1cc(NC(=O)c2nc(NC(=O)CCNC(=O)c3cc(NC(=O)c4nccn4C)cn3C)cn2C)cc1C(=O)NCCCC(=O)Nc1cn(C)c(C(=O)NCCC(=O)Nc2cc(C(=O)Nc3cn(C)c(C(=O)NCCC(=O)NCC#CC#CC4CCN(C(=O)c5ccc(C(C)(C)C)cc5)CC4)n3)n(C)c2)n1 [Compound B-188], which EC50 is on record?
**A.** > 1 µM

**Q.** How did the EC50 turn out when CCCN(CCC)C(=O)c1nc(NC(=O)c2cc(NC(=O)CCNC(=O)c3nc(NC(=O)CCCNC(=O)c4cc(NC(=O)c5nc(NC(=O)CCNC(=O)c6cc(NC(=O)c7nccn7C)cn6C)cn5C)cn4C)cn3C)cn2C)cn1C [Compound B-104] was run?
**A.** > 1 µM

**Q.** Which EC50 does the source give for Cn1cc(NC(=O)c2nc(NC(=O)CCNC(=O)c3cc(NC(=O)c4nccn4C)cn3C)cn2C)cc1C(=O)NCCCC(=O)Nc1cn(C)c(C(=O)NCCC(=O)Nc2cc(C(=O)Nc3cn(C)c(C(=O)NCCC(=O)NC4CCNCC4)n3)n(C)c2)n1 [Compound B-140] here?
**A.** > 1 µM

**Q.** Which EC50 does the source give for Cn1cc(NC(=O)c2nc(NC(=O)CCNC(=O)c3cc(NC(=O)c4nccn4C)cn3C)cn2C)cc1C(=O)NCCCC(=O)Nc1cn(C)c(C(=O)NCCC(=O)Nc2cc(C(=O)Nc3cn(C)c(C(=O)NCCCCCCCNC(=O)c4cccc(C(=O)OC(C)(C)C)c4)n3)n(C)c2)n1 [Compound B-338] here?
**A.** > 1 µM

**Q.** Cn1cc(NC(=O)c2nc(NC(=O)CCNC(=O)c3cc(NC(=O)c4nccn4C)cn3C)cn2C)cc1C(=O)NCCCC(=O)Nc1cn(C)c(C(=O)NCCC(=O)Nc2cc(C(=O)Nc3cn(C)c(C(=O)NCCC(=O)NCCCCCN4CCC(C#CC#CC5CCNCC5)CC4)n3)n(C)c2)n1 [Compound B-336] was tested. Which EC50 did it give?
**A.** > 1 µM

**Q.** For Cn1cc(NC(=O)c2nc(NC(=O)CCNC(=O)c3cc(NC(=O)c4nccn4C)cn3C)cn2C)cc1C(=O)NCCCC(=O)Nc1cn(C)c(C(=O)NCCC(=O)Nc2cc(C(=O)Nc3cn(C)c(C(=O)NCCC(=O)NCC#CC#CC4CCNCC4)n3)n(C)c2)n1 [Compound B-137, 1-methyl-4-(3-{[1-methyl-4-(1-methylimidazole-2-amido)pyrrol-2-yl]formamido}propanamido)-N-(1-methyl-5-{[3-({1-methyl-2-[(2-{[1-methyl-5-({1-methyl-2-[(2-{[5-(piperidin-4-yl)penta-2,4-diyn-1-yl]carbamoyl}ethyl)carbamoyl]imidazol-4-yl}carbamoyl)pyrrol-3-yl]carbamoyl}ethyl)carbamoyl]imidazol-4-yl}carbamoyl)propyl]carbamoyl}pyrrol-3-yl)imidazole-2-carboxamide], which EC50 is on record?
**A.** > 1 µM

**Q.** With CC(C)CCC(=O)N1CCC(C#CC#CCNC(=O)CCNC(=O)c2nc(NC(=O)c3cc(NC(=O)CCNC(=O)c4nc(NC(=O)CCCNC(=O)c5cc(NC(=O)c6nc(NC(=O)CCNC(=O)c7cc(NC(=O)c8nccn8C)cn7C)cn6C)cn5C)cn4C)cn3C)cn2C)CC1 [Compound B-190] as the molecule, how does the EC50 read?
**A.** > 1 µM

**Q.** CCN(CC)CCCC[C@H](NC(C)=O)C(=O)NCCOCCOCCOCCNC(=O)CCNC(=O)c1nc(NC(=O)c2cc(NC(=O)CCNC(=O)c3nc(NC(=O)CCCNC(=O)c4cc(NC(=O)c5nc(NC(=O)CCNC(=O)c6cc(NC(=O)c7nccn7C)cn6C)cn5C)cn4C)cn3C)cn2C)cn1C [Compound B-86] was tested. Which EC50 did it give?
**A.** > 1 µM

**Q.** Which EC50 does the source give for CCN(CC)CCCC[C@@H](NC(C)=O)C(=O)NCCOCCOCCNC(=O)CCNC(=O)c1nc(NC(=O)CCNC(=O)c2cc(NC(=O)c3nc(NC(=O)CCCNC(=O)c4cc(NC(=O)c5nc(NC(=O)CCNC(=O)c6cc(NC(C)c7nccn7C)cn6C)cn5C)cn4C)cn3C)cn2C)cn1C (stereo partly shown) [Compound B-97] here?
**A.** 0.1 to 0.5 µM

**Q.** Which EC50 does the source give for COC(=O)c1cccc(OCCOCCOCCNC(=O)c2nc(NC(=O)c3cc(NC(=O)CCNC(=O)c4nc(NC(=O)CCCNC(=O)c5cc(NC(=O)c6nc(NC(=O)CCNC(=O)c7cc(NC(=O)c8nccn8C)cn7C)cn6C)cn5C)cn4C)cn3C)cn2C)c1 [Compound B-339] here?
**A.** 0.5 to 1 µM

**Q.** With COCCOCCOCCOCCN(CCOCCOCCOCCOC)C(=O)CCCCn1cc(NC(=O)CCNC(=O)c2nc(NC(=O)CCCNC(=O)c3cc(NC(=O)c4nc(NC(=O)CCNC(=O)c5cc(NC(=O)c6nccn6C)cn5C)cn4C)cn3C)cn2C)cc1C(=O)Nc1cn(C)c(C(=O)NCCC(=O)N2CCC(N3CCNCC3)CC2)n1 [Compound B-160] as the molecule, how does the EC50 read?
**A.** > 1 µM

**Q.** For CCN(CC)CCCC[C@H](NC(=O)c1ccncc1)C(=O)NCCOCCOCCOCCOCCOCCNC(=O)CCNC(=O)c1nc(NC(=O)c2cc(NC(=O)CCNC(=O)c3nc(NC(=O)CCCNC(=O)c4cc(NC(=O)c5nc(NC(=O)CCNC(=O)c6cc(NC(=O)c7nccn7C)cn6C)cn5C)cn4C)cn3C)cn2C)cn1C [Compound B-93], which EC50 is on record?
**A.** > 1 µM

**Q.** With Cn1cc(NC(=O)c2nc(NC(=O)CCNC(=O)c3cc(NC(=O)c4nccn4C)cn3C)cn2C)cc1C(=O)NCCCC(=O)Nc1cn(C)c(C(=O)NCCC(=O)Nc2cc(C(=O)Nc3cn(C)c(C(=O)NCCOCCOCCOc4cncc(C(=O)O)c4)n3)n(C)c2)n1 [Compound B-216] as the molecule, how does the EC50 read?
**A.** > 1 µM

**Q.** Which EC50 does the source give for CCCCCNC(=O)CCNC(=O)c1nc(NC(=O)c2cc(NC(=O)CCNC(=O)c3nc(NC(=O)CCCNC(=O)c4cc(NC(=O)c5nc(NC(=O)CCNC(=O)c6cc(NC(=O)c7nccn7C)cn6C)cn5C)cn4CCCCC(=O)N(CCOCCOCCOCCOC)CCOCCOCCOCCOC)cn3C)cn2C)cn1C [Compound B-261] here?
**A.** 0.1 to 0.5 µM

**Q.** With CCN(CC)CCCC[C@@H](NC(C)=O)C(=O)NCCNC(=O)CCNC(=O)c1nc(NC(=O)c2cc(NC(=O)CCNC(=O)c3nc(NC(=O)CCCNC(=O)c4cc(NC(=O)c5nc(NC(=O)CCNC(=O)c6cc(NC(=O)c7nccn7C)cn6C)cn5C)cn4C)cn3C)cn2C)cn1C [Compound B-103] as the molecule, how does the EC50 read?
**A.** > 1 µM

**Q.** With Cn1cc(NC(=O)c2nc(NC(=O)CCNC(=O)c3cc(NC(=O)c4nccn4C)cn3C)cn2C)cc1C(=O)NCCCC(=O)Nc1cn(C)c(C(=O)NCCC(=O)Nc2cc(C(=O)Nc3cn(C)c(C(=O)NCCOCCOCCOCCN4CCC(C#CC#CC5CCN(C(=O)OC(C)(C)C)CC5)CC4)n3)n(C)c2)n1 [Compound B-199] as the molecule, how does the EC50 read?
**A.** 0.1 to 0.5 µM

**Q.** How did the EC50 turn out when CCCNC(=O)c1cc(NC(=O)c2cc(NC(=O)c3nc(NC(=O)c4nc(NC(=O)[C@@H](N)CCNC(=O)c5nc(NC(=O)CCNC(=O)c6cc(NC(=O)c7nccn7C)cn6C)cn5C)cn4C)cn3C)cn2C)cn1C [Compound B-64] was run?
**A.** > 1 µM

**Q.** How did the EC50 turn out when CCN(CC)CCCC[C@H](NC(=O)c1cccc(C(=O)O)c1)C(=O)NCCOCCOCCOCCOCCOCCNC(=O)CCNC(=O)c1nc(NC(=O)c2cc(NC(=O)CCNC(=O)c3nc(NC(=O)CCCNC(=O)c4cc(NC(=O)c5nc(NC(=O)CCNC(=O)c6cc(NC(=O)c7nccn7C)cn6C)cn5C)cn4C)cn3C)cn2C)cn1C [Compound B-222] was run?
**A.** 0.5 to 1 µM

**Q.** For CN(CCCCCc1cccc(C(=O)O)c1)CCCNC(=O)c1nc(NC(=O)c2cc(NC(=O)CCNC(=O)c3nc(NC(=O)CCCNC(=O)c4cc(NC(=O)c5nc(NC(=O)CCNC(=O)c6cc(NC(=O)c7nccn7C)cn6C)cn5C)cn4C)cn3C)cn2C)cn1C [Compound B-215], which EC50 is on record?
**A.** 0.1 to 0.5 µM

**Q.** Cn1cc(NC(=O)c2nc(NC(=O)CCNC(=O)c3cc(NC(=O)c4nccn4C)cn3C)cn2C)cc1C(=O)NCCCC(=O)Nc1cn(C)c(C(=O)NCCC(=O)Nc2cc(C(=O)Nc3cn(C)c(C(=O)NCCC(=O)NCCOCCN4CCN(C5CCN(c6ccc(N)cc6)CC5)CC4)n3)n(C)c2)n1 [Compound B-155] was tested. Which EC50 did it give?
**A.** > 1 µM

**Q.** For CCCNC(=O)c1cc(NC(=O)c2nc(NC(=O)CCNC(=O)c3cc(NC(=O)c4nc(NC(=O)[C@@H](CCNC(=O)c5cc(NC(=O)c6nc(NC(=O)CCNC(=O)c7cc(NC(=O)c8nccn8C)cn7C)cn6C)cn5C)NC(C)=O)cn4C)cn3C)cn2C)cn1C [Compound B-7], which EC50 is on record?
**A.** 0.5 to 1 µM

**Q.** With CC(C)CCCN1CCC(C#CC#CCNC(=O)CCNC(=O)c2nc(NC(=O)c3cc(NC(=O)CCNC(=O)c4nc(NC(=O)CCCNC(=O)c5cc(NC(=O)c6nc(NC(=O)CCNC(=O)c7cc(NC(=O)c8nccn8C)cn7C)cn6C)cn5C)cn4C)cn3C)cn2C)CC1 [Compound B-191] as the molecule, how does the EC50 read?
**A.** 0.1 to 0.5 µM
